Test results reported in US20110123670A1, “COMESTIBLE PRODUCTS” (priority 2007, published 2011).

Assays:
[1] = system: panel of 10-12 trained assessors; assay: Determination of salivation effect: Quantitative Descriptive Analysis, Time-Intensity measurement of salivating mouthfeel; type: in vivo; details: for Increase Angle (°) / Time to Maximum Salivatory Effect / Area under Curve / Intensity at Maximum: salivating effect, chewy confectionary with 46.0 wt % test sweetener, 90 second test period, mean of at least 13 repetitions; for Area under Curve / Intensity at Maximum: relative values
From the text: (§1) Quantitative Descriptive Analysis was used to determine the salivation effect of the invention. Seven samples of confectionary were tasted by a panel of 10-12 trained assessors using the technique of Time-Intensity measurement. The samples differed only in the sweetener component of the product.
(§2) This technique involves the testing of the confectionary sample in a sensory booth. The booth contained a computer equipped with software which allowed the panellist to record the perceived level of the mouth-watering sensation with time. Each assessor measured the perceived intensity of salivating mouthfeel at 1 second intervals over a time period of 90 seconds for each sample. This was achieved by initiating a timer within the software as the sample was placed in the mouth. Over the subsequent 90 second period the position of a marker on a linear slide scale was adjusted according to the perceived level of salivation. The data thus obtained was then processed to produce an analysis curve (intensity of effect versus time). The assessment was repeated multiple times (multiple assessors were used and at least three repetitions per assessor) and the result derived from the mean of the values obtained. The parameters determined were as follows: • Time to maximum salivatory effect, the time taken in seconds for the sample to reach its maximum intensity, a short time being indicative of the desired rapid inception of mouth-watering; • Intensity of salivation at maximum, the highest point in the curve as recorded by each assessor, a high intensity being generally preferred; • Area under the analysis curve, the larger this area the greater the total salivation over the 90 second test period; and • Increase angle, the angle in degrees of ascent from the first recorded value to the maximum intensity, a greater increase angle on the curve illustrates which samples have the greatest increase in salivation per unit time.
A series of tests were carried out to determine the mouth-watering effect and cooling effect derived from each of a range of sweeteners. The sweeteners tested were sugar (sucrose), erythritol, isomaltulose, trehalose, galactose, dextrose monohydrate and xylitol. Conventional methods were used to prepare this candy chew.

[2] = Determination of cooling effect: drop in temperature on dissolving sweetener powder in distilled water at 37° C.; type: physicochemical; details: cooling effect of sweeteners, tested in duplicate, mean
Protocol: 150 g of sweetener powder was dissolved in 50 ml of distilled water at 37° C. with stirring. The drop in temperature was measured after 20 seconds than a further 50 ml of distilled water added and the temperature measured after a further 20 seconds. This step was repeated […] to a total volume of water of 200 ml. All samples were tested in duplicate and the result derived from the mean of the values obtained. The repeated addition of water was intended to mimic the conditions in the mouth, where more saliva would be produced as chewing of the comestible progresses. As a result, the cooling effect is indicative of the cooling effect that would be observed in the mouth upon dissolution of the sweetener during consumption.

[3] = system: panel of 10-12 trained assessors; assay: Quantitative Descriptive Analysis of cooling effect (temperature decrease in the nose and mouth); type: in vivo; details: mean of at least 10 repetitions; for Increase Angle (°) / Area under Curve / Intensity at Maximum: cooling effect; for Area under Curve / Intensity at Maximum: relative values; for Time to maximum cooling effect: table of cooling effect parameters
From the text: as §1, §2
In addition, the Quantitative Descriptive Analysis as described above with regard to the evaluation of salivation was applied to determine the time to maximum cooling effect, the intensity of cooling at maximum, the area under the analysis curve and the increase angle. Cooling was assessed in terms of the temperature decrease in the nose and mouth, at the time of drawing air into the mouth. As with the determination of salivation using this technique, for effective cooling, a larger value is desirable for all parameters except the time to maximum cooling.

[4] = Studies by the applicant on galactose in sports drinks; type: in vivo; details: compared with glucose

Row | SMILES | Increase Angle (°) [1] | Time to Maximum Salivatory Effect [1] | Area under Curve [1] | Intensity at Maximum [1] | Magnitude of reduction in temperature at T = 90 seconds (° C.) [2] | Increase Angle (°) [3] | Area under Curve [3] | Intensity at Maximum [3] | Time to maximum cooling effect [3] | mouth-watering effect relative to that observed through the use of sugar ([1]; at the 90 second interval, FIG. 1) | incidence of hypoglycaemia [4] | overall sporting performance [4]
1 | OC[C@H]1O[C@H](OC[C@H]2OC(O)(CO)[C@@H](O)[C@@H]2O)[C@H](O)[C@@H](O)[C@@H]1O (some centres unmarked) [Isomaltulose, isomaltulose] | 31.1 ° | 65.7 s | 1898 | 34.3 |  |  |  |  |  |  |  | 
2 | OC[C@H]1O[C@H](O[C@H]2O[C@H](CO)[C@@H](O)[C@H](O)[C@H]2O)[C@H](O)[C@@H](O)[C@@H]1O [Trehalose, trehalose] | 35.3 ° | 66.5 s | 2253 | 43 |  |  |  |  |  |  |  | 
3 | O.O=C[C@H](O)[C@@H](O)[C@H](O)[C@H](O)CO [Dextrose Monohydrate, dextrose monohydrate] | 38 ° | 76.7 s | 2306 | 52.1 | 14.5 °C | 36.5 ° | 663 | 24 | 81.9 s |  |  | 
4 | OC[C@@H](O)[C@@H](O[C@H]1O[C@H](CO)[C@@H](O)[C@H](O)[C@H]1O)[C@H](O)[C@@H](O)CO [Maltitol] |  |  |  |  | 16.5 °C |  |  |  |  |  |  | 
5 | O=C[C@H](O)[C@@H](O)[C@@H](O)[C@H](O)CO [Galactose, galactose] | 51.5 ° | 62 s | 3561 | 64.9 | 11.0 °C | 39.3 ° | 725 | 14.6 | 57.1 s | approximately 2.5 times | lower | increased
6 | OC[C@@H](O)[C@@H](O)[C@H](O)[C@H](O)CO [Mannitol] |  |  |  |  | 13.0 °C |  |  |  |  |  |  | 
7 | OC[C@@H](O)[C@H](O)[C@@H](O)CO [Xylitol, xylitol] | 39.3 ° | 70.3 s | 2874 | 53.1 | 26.0 °C | 46 ° | 2457 | 44.7 | 64.5 s |  |  | 
8 | OC[C@@H](O)[C@@H](O)CO [Erythritol, erythritol] | 51.8 ° | 64.8 s | 4079 | 73 |  | 81.5 ° | 3431 | 59.9 | 63.5 s |  |  | 
9 | OC[C@H]1O[C@@](CO)(O[C@H]2O[C@H](CO)[C@@H](O)[C@H](O)[C@H]2O)[C@@H](O)[C@@H]1O [Sugar, sucrose] | 35.1 ° | 58.9 s | 1673 | 28.6 | 13.5 °C |  |  |  |  |  |  | 
